According to patent publication US20060079453A1, “Hla binding peptides and their uses” (priority 2002, published 2006):
Where “and” joins values, the source holds several entries; their conditions need not be identical. Equal entries are not always repeated. No end group written: not given here.

Experiments:
Assay in all cases: biochemical
HLA-B*5101 = HLA-B*5101 (Homo sapiens, UniProt P01889, A329T/A93T/A95T/C349S/D138N/D201E/D98Y/E187L/E204Q/E69T/G107R/I218V/K202T/L105A/L119W/N104I/Q94N/R106L/R155S/R180L/S101N/S121T/S35A/S48A/V306I/V36M/Y195H/Y91F); details: B*5101 binding affinity (IC50)
HLA-B*0702 = HLA-B*0702 (Homo sapiens, UniProt P01889); assay type: binding; details: B*0702 binding affinity (IC50)
HLA-B*5301 = HLA-B*5301 (Homo sapiens, UniProt P01889, A329T/A93T/A95T/C349S/D201E/D98Y/E176V/E187L/E204Q/E69T/G107R/I218V/K202T/L105A/L119I/N104I/Q94N/R106L/R155S/R180L/S101N/S121R/S35A/S48A/T118I/V127L/V306I/V36M/Y140S/Y91F); assay type: binding; details: B*5301 binding affinity (IC50)
HLA-B*5401 = HLA-B*5401 (Homo sapiens, UniProt P01889, A329T/C349S/D138N/D201E/E176V/E187T/E204Q/E69G/I76V/K202T/L119W/R155S/R180L/S121T/S35A/S48A/V127L/V306I/V36M/Y140L); assay type: binding; details: B*5401 binding affinity (IC50)
HLA-B*3501 = HLA-B*3501 (Homo sapiens, UniProt P01889, A329T/A93T/A95T/C349S/D201E/D98Y/E176V/E187L/E204Q/E69T/I218V/K202T/L119I/Q94N/R155S/R180L/S121R/S35A/S48A/T118I/V127L/V306I/V36M/Y140S/Y91F); details: B*3501 binding affinity (IC50)
H-2Ld = H-2Ld (Mus musculus, UniProt P01897); assay type: binding, murine; details: Ld
H-2Ld, sequence (P01897 25-362): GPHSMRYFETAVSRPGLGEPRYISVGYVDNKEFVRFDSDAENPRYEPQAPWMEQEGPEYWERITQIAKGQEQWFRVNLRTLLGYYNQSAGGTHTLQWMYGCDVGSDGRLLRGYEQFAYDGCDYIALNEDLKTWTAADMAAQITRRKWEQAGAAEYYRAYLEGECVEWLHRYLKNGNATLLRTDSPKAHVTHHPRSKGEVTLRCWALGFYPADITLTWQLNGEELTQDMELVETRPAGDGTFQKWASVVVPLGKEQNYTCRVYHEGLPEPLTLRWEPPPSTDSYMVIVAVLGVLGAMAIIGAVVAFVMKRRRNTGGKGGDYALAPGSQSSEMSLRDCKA
H-2Ld, sequence (P61769 21-119, further chain): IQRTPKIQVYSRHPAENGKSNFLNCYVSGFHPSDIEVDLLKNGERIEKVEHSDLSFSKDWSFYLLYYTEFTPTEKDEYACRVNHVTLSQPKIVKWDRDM

H-2 Db = H-2 Db (Mus musculus, UniProt P01899); assay type: binding, murine; details: Db
H-2 Db, sequence (P61769 21-119): as the sequence (P61769 21-119, further chain) above
H-2 Db, sequence (P01899 25-362): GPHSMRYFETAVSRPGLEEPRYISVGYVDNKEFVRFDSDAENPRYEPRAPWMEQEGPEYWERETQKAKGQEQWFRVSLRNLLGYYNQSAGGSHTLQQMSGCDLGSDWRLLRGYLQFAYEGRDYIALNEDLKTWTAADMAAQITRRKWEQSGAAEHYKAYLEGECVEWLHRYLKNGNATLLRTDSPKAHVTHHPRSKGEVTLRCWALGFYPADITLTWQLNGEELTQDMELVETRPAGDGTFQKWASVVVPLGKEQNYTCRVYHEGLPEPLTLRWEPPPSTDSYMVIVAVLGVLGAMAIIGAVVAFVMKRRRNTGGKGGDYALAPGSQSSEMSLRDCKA

[1] = target: HLA-DQ DQA1*0301/B*0302 (DQ8) (Homo sapiens, UniProt P01909+P01920, A209T/A45G/C70Q/D89A/DUP78-78/E183D/E77G/F237L/G63E/H199R/I129T/K197E/L178F/L74F/L98V/Q57E/Q76R/S185I/S97I/T217I/T49S/V73L/Y58L)
HLA-B*1801 = HLA-B*1801 (Homo sapiens, UniProt P01889, A329T/A93T/A95T/C349S/D201E/D54G/D98Y/E176V/E187T/E204Q/E69T/K202T/Q94N/R155S/R180L/S121R/V306I/Y140S/Y195H/Y33H/Y91S); assay type: binding; details: B*1801
HLA-B*4002 = HLA-B*4002 (Homo sapiens, UniProt P01889, A65T/A93T/A95T/D138N/D201E/D98Y/E176V/E204Q/E69K/K202T/N87E/Q56L/Q94N/R180L/S48T/Y33H/Y91S); assay type: binding; details: B*4002
HLA-B*4001 = HLA-B*4001 (Homo sapiens, UniProt P01889, A65T/A93T/A95T/D138N/D98Y/E176V/E69K/N87E/Q56L/Q94N/R180L/S121R/S35A/S48T/T167S/V36M/W171L/Y33H/Y91S); assay type: binding; details: B*4001
HLA-B*4402 = HLA-B*4402 (Homo sapiens, UniProt P01889, A223V/A65T/A93T/A95T/D201E/D98Y/E176V/E187L/E204Q/E69K/G107R/H137Y/K202T/L105A/L119I/N104T/N87E/Q56L/Q94N/R106L/R155S/R180D/S101N/S121R/S35A/S48T/T118I/V36M/W191S/Y140D/Y91S); assay type: binding; details: B*4402
HLA-B*4501 = HLA-B*4501 (Homo sapiens, UniProt P01889, A329T/A65T/A93T/A95T/C349S/D138N/D201E/D98Y/E176V/E187L/E204Q/E69K/H137Y/K202T/L119W/N87E/Q56L/Q94N/R155S/R180D/S121R/S35A/S48T/V127L/V306I/V36M/W191S/Y140L/Y33H/Y91S); assay type: binding; details: read-out: B*4501
H-2Kk = H-2Kk (Mus musculus, UniProt P04223); assay type: binding, murine
H-2Kk, sequence (P04223 22-369): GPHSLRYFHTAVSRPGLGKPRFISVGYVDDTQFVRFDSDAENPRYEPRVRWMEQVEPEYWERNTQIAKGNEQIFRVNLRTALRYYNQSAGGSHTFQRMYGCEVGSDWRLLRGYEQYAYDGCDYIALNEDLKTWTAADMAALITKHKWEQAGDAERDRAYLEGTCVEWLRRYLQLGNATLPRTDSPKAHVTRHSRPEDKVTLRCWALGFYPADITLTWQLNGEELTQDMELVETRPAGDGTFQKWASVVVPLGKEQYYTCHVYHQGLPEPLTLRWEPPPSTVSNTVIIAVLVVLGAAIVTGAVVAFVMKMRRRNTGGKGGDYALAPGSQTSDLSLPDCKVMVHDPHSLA
H-2Kk, sequence (P61769 21-119, further chain): as the sequence (P61769 21-119, further chain) above

| Molecule | IC50 (HLA-B*5101) [nM] | IC50 (HLA-B*0702) [nM] | IC50 (HLA-B*5301) [nM] | IC50 (HLA-B*5401) [nM] | IC50 (HLA-B*3501) [nM] | IC50 (H-2Ld) | also measured |
| --- | --- | --- | --- | --- | --- | --- | --- |
| CPTVQASKL | 448 | 3250 | 1860 | 21600 | 645 |  |  |
| RPQASQVYM |  |  |  |  |  | 3.8 nM |  |
| FPVGPGPGL | 138 |  | 32 | 246 | 14 |  |  |
| KAVYNFAAM |  |  |  |  |  | 27000 nM | IC50 (H-2 Db): 4.4 nM |
| RPQASGVYM |  |  |  |  |  | 0.99 nM and 3 nM | IC50 (H-2 Db): > 44000 nM |
| RPRGPGPGSEF | > 14800 | 11 | 19300 | 2740 | 24900 |  |  |
| N=C(N)NCCC[C@H](NC(=O)[C@H](CCC(N)=O)NC(=O)[C@@H]1CCCN1C(=O)[C@@H](N)CCC(N)=O)C(=O)NCC(=O)N[C@@H](Cc1ccc(O)cc1)C(=O)N[C@@H](CCC(=O)O)C(=O)N[C@@H](CC(N)=O)C(=O)N[C@@H](Cc1ccccc1)C(=O)O |  |  |  |  |  | 319 nM |  |
| RPQGSGVYM |  |  |  |  |  | 39 nM |  |
| IDVWLGGLKENFLPY |  |  |  |  |  |  | IC50 [1]: > 2800 nM |
| TPAGPGPGVF |  | 334 | 2630 |  | 374 |  |  |
| CSCC[C@H](NC(=O)[C@@H](NC(=O)[C@H](C)NC(=O)[C@H](Cc1ccccc1)NC(=O)[C@H](CC(N)=O)NC(=O)[C@H](Cc1ccc(O)cc1)NC(=O)[C@@H](NC(=O)[C@H](C)NC(=O)[C@@H](N)CCCCN)C(C)C)[C@@H](C)O)C(=O)O |  |  |  |  |  | > 27000 nM |  |
| KAVANFATM |  |  |  |  |  | 27000 nM | IC50 (H-2 Db): 1.2 nM |
| CC(C)C[C@H](NC(=O)[C@@H]1CCCN1C(=O)[C@@H](NC(=O)[C@H](CCC(N)=O)NC(=O)[C@@H]1CCCN1C(=O)[C@H](CCCNC(=N)N)NC(=O)[C@@H](NC(=O)[C@@H]1CCCN1C(=O)[C@@H](N)Cc1ccccc1)C(C)C)C(C)C)C(=O)O | 18 | 17 | 49 | 21 | 3.8 |  |  |
| LPPLERLTI | 359 | 24400 | 2620 | 11200 | 13400 |  |  |
| FPLTFGWCI | 63 | 48000 | 36 | 14 | 164 |  |  |
| SPGPGPGL | 3540 | 173 | 25600 | 53300 | 2340 |  |  |
| APCNFFTSA |  | 43 | > 22400 | 0.61 | 8090 |  |  |
| QPRAPIRPI | > 55000 | 6770 |  | > 100000 | > 72000 |  |  |
| FPVRPQVPI | 39 | 94 |  | 9.1 | 124 |  |  |
| YEDTGKTI |  |  |  |  |  |  | IC50 (HLA-B*1801): 14000 nM; IC50 (HLA-B*4002): 83 nM; IC50 (HLA-B*4001): 794 nM; IC50 (HLA-B*4402): 7910 nM; IC50 (HLA-B*4501): 49000 nM; IC50 (H-2Kk): 0.86 nM |
| RPQVPLRPI | > 9000 | 367 | 85300 |  | > 23200 |  |  |
| VESENKVV |  |  |  |  |  |  | IC50 (H-2Kk): 349 nM |
| FPLTFGWCFKI | 590 | 52600 | 188 |  | 4990 |  |  |
